Data from publication PMC5218480 (PLoS ONE, 2017).

System: MV-4-11 cells
Test: Gene expression microarray analysis (Affymetrix PrimeView) and GSEA
Assay type: cell-based, human
Conditions: gene FGFR1OP; ACY-1035 1 mM; LIST F

For Nc1ccc(-c2cccs2)cc1NC(=O)c1ccc2c(c1)cc(C1CC1)n2CCN1CCOCC1 [ACY-1035], the “RFU, FGFR1OP (ProbeSet 11751329_s_at)” value was 243.91 RFU.
